The text below walks through data of ChEMBL document CHEMBL2046355 (Bioorg Med Chem Lett, 2012).

Data set [1] is described as follows: Inhibition of L-type calcium channel at 10 uM.
For data set [2], the target named is hERG (KCNH2) (Homo sapiens, UniProt Q12809). The data set can be described thus: Inhibition of human Erg at 10 uM.
The target of data set [3] is T1, Solute carrier family 12 member 2 (Homo sapiens, UniProt P55011).
T1 sequence (P55011 whole entry): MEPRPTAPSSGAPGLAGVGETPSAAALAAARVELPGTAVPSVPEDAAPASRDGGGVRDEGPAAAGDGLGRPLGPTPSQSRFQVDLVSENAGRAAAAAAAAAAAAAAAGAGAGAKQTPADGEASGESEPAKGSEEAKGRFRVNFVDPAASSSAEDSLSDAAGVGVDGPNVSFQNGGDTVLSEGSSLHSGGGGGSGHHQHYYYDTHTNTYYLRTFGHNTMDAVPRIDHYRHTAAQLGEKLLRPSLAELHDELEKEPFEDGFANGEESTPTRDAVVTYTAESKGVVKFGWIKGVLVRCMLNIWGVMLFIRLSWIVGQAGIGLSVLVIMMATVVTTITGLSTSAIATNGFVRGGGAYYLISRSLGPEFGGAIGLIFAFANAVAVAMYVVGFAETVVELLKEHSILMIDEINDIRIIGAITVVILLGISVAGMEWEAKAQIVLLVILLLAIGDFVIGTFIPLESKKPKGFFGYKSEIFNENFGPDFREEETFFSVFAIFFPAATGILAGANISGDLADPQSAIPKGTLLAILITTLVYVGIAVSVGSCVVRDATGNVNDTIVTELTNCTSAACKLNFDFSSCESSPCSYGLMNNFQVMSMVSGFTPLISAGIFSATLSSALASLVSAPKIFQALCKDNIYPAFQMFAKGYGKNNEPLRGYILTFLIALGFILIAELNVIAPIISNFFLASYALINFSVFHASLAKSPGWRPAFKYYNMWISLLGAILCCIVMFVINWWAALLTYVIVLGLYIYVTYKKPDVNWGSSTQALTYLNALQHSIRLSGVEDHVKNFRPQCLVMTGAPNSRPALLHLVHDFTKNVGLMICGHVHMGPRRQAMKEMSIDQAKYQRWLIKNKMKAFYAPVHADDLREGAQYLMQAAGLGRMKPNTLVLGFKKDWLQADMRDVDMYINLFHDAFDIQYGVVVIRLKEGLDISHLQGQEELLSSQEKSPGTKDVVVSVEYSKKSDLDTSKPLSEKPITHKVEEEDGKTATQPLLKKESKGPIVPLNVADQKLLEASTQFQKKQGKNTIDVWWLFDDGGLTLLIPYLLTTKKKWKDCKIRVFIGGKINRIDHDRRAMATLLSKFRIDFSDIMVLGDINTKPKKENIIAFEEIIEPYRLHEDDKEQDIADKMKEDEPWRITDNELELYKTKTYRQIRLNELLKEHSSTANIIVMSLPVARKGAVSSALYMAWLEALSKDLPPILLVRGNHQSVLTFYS
Description: Antagonist activity at […] expressed in human HEK293 cells assessed as [86Rb] uptake after 30 mins by scintillation counting. The class given is functional, cell-based.

In data set [4] the target is T2, Solute carrier family 12 member 5 (Homo sapiens, UniProt Q9H2X9).
T2 sequence (Q9H2X9 whole entry): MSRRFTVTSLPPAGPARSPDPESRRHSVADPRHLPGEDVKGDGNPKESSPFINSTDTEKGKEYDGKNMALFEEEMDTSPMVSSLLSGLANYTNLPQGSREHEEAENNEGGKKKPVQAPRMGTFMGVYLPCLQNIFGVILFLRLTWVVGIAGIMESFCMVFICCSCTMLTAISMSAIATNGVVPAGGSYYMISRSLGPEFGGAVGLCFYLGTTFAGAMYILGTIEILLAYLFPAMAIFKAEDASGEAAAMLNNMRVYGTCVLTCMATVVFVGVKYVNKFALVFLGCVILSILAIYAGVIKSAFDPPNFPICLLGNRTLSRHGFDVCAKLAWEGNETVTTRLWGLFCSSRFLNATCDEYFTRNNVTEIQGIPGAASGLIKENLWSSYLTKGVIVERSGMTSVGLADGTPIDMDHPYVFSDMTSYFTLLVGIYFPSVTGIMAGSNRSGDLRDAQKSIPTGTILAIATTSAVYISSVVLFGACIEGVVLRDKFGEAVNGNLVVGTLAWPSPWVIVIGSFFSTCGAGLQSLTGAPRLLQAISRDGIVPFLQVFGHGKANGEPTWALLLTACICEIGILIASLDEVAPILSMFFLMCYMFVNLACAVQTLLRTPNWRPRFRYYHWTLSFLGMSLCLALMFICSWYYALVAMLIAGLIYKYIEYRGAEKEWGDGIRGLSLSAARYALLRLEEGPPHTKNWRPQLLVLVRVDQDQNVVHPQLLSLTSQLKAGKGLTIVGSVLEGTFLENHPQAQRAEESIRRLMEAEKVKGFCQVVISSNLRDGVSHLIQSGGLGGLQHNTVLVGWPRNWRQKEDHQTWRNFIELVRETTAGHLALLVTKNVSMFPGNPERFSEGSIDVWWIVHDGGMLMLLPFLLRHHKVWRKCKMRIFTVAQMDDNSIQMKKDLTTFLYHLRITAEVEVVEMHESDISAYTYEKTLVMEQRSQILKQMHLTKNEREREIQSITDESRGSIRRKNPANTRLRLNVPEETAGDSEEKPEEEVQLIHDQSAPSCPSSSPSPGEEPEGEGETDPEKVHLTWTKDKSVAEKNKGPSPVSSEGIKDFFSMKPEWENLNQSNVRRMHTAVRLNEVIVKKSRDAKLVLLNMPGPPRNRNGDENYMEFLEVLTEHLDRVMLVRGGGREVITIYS
Description: Antagonist activity at KCC2 expressed in human HEK293 cells assessed as decrease in Tl-stimulated fluorescence increase after 8 mins by fluorescence analysis. The class given is functional, cell-based.

For data set [5], the target named is T3, Solute carrier family 12 member 2 (Homo sapiens) (UniProt P55011).
T3 sequence (whole entry): T1 sequence (P55011 whole entry)
Description: Antagonist activity at […] expressed in human HEK293 cells assessed as [86Rb] uptake at 50 uM after 30 mins by scintillation counting. The class given is functional, cell-based. On the set-up: scale not given: the % may be the effect or the level left.

In data set [6] the target is T4, Solute carrier family 12 member 5 (Homo sapiens) (UniProt Q9H2X9).
T4 sequence (whole entry): T2 sequence (Q9H2X9 whole entry)
Description: Antagonist activity at KCC2 expressed in human HEK293 cells assessed as decrease in Tl-stimulated fluorescence increase at 2 uM after 8 mins by fluorescence analysis. The class given is functional, cell-based.

Data set [7] can be described thus: Volume of distribution at steady state in rat at 1 mg/kg, iv. The class given is ADME, organism-based. On the set-up: dose 1 mg/kg, route intravenous. The following applies: in vivo, read-out: Vdss.
Data set [8] can be described thus: Metabolic stability of the compound in rat plasma assessed as compound remaining after 1 hr. The class given is ADME, cell-free. The following applies: read-out: Stability.
Data set [9] can be described thus: Clearance in rat at 1 mg/kg, iv. The class given is ADME, organism-based. On the set-up: dose 1 mg/kg, route intravenous. Conditions: in vivo.
Data set [10] deals with T4, Solute carrier family 12 member 5 (Homo sapiens). The data set can be described thus: Antagonist activity at KCC2 expressed in human HEK293 cells assessed as [86Rb] uptake after 30 mins by scintillation counting. The class given is functional, cell-based.
The target in data set [11] is Cytochrome P450 2C9 (Homo sapiens, UniProt P11712). The data set can be described thus: Inhibition of CYP2C9 in human liver microsomes. The class given is ADME, Microsome.
Data set [12] deals with T5, Cytochrome P450 1A2 (Homo sapiens, UniProt P05177).
T5 sequence (P05177 whole entry): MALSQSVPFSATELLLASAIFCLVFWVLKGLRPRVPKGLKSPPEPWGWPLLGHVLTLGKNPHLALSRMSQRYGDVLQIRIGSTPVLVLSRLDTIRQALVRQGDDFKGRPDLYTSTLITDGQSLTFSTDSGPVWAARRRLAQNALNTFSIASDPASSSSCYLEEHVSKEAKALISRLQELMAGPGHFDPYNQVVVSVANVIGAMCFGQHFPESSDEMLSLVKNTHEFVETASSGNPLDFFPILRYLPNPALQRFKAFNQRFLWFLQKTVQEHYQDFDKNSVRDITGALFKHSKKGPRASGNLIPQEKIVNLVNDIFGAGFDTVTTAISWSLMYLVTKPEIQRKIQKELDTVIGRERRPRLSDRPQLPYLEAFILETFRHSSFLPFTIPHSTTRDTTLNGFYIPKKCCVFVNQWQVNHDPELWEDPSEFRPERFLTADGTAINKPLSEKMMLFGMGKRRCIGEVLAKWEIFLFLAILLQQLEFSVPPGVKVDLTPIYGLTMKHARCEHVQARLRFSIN
The data set can be described thus: Inhibition of CYP1A2 in human liver microsomes. The class given is ADME, Microsome.

The target in data set [13] is Cytochrome P450 2D6 (Homo sapiens, UniProt P10635). Description: Inhibition of CYP2D6 in human liver microsomes. The class given is ADME, Microsome.
A short description of data set [14]: Half life in rat at 1 mg/kg, iv. The class given is ADME, organism-based. On the set-up: dose 1 mg/kg, route intravenous. Conditions: in vivo.
Data set [15] addresses Cytochrome P450 3A4 (Homo sapiens, UniProt P08684). Description: Inhibition of CYP3A4 in human liver microsomes. The class given is ADME, Microsome.
For data set [16], the system named is Plasma. The data set can be described thus: Fraction unbound in human plasma. The class given is ADME, cell-free.
Data set [17] deals with Plasma. The data set can be described thus: Fraction unbound in rat plasma. The class given is ADME, cell-free.

Calls of active or inactive are those of the source. The rule behind the calls is not given here.

Sequence of Cytochrome P450 2C9 (P11712 whole entry): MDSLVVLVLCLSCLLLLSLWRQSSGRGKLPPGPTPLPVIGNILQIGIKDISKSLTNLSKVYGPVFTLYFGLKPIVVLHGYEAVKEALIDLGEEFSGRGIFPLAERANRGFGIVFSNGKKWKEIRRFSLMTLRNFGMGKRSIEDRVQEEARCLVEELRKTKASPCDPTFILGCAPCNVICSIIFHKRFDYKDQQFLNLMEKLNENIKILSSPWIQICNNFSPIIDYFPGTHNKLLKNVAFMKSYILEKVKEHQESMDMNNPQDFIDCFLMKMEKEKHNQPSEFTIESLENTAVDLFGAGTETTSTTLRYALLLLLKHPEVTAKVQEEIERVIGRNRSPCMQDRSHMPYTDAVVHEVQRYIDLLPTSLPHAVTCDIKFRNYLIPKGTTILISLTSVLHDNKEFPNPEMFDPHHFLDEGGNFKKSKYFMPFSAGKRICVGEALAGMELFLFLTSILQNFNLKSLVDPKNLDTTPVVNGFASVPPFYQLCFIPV
Sequence of Cytochrome P450 2D6 (P10635 whole entry): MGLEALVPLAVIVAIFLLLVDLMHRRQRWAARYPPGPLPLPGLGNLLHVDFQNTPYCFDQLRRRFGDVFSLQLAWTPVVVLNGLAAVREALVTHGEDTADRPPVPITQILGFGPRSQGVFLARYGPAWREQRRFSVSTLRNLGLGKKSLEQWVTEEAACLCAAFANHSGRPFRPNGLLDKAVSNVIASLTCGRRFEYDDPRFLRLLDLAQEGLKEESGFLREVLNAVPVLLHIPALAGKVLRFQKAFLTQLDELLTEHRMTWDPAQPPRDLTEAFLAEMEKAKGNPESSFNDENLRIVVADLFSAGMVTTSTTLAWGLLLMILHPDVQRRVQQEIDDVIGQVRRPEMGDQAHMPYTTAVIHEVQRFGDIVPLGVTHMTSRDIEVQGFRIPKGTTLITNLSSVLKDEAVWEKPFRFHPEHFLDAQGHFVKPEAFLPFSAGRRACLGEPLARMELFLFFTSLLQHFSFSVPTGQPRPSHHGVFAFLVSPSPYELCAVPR
Sequence of Cytochrome P450 3A4 (P08684 whole entry): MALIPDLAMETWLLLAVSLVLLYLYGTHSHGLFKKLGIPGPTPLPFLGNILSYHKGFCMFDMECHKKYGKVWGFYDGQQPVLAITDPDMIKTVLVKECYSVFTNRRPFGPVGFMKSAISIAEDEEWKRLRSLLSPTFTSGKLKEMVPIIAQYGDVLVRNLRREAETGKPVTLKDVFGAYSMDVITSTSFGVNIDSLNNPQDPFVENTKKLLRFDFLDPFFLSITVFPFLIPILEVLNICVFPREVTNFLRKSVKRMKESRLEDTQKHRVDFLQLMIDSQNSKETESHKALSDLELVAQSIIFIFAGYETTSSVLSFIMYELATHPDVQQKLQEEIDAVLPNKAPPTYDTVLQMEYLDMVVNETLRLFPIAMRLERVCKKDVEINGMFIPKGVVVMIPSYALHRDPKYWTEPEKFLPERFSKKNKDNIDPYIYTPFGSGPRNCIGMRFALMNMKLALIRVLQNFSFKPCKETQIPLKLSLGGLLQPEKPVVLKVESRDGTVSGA
Sequence of hERG (KCNH2) (Q12809 whole entry): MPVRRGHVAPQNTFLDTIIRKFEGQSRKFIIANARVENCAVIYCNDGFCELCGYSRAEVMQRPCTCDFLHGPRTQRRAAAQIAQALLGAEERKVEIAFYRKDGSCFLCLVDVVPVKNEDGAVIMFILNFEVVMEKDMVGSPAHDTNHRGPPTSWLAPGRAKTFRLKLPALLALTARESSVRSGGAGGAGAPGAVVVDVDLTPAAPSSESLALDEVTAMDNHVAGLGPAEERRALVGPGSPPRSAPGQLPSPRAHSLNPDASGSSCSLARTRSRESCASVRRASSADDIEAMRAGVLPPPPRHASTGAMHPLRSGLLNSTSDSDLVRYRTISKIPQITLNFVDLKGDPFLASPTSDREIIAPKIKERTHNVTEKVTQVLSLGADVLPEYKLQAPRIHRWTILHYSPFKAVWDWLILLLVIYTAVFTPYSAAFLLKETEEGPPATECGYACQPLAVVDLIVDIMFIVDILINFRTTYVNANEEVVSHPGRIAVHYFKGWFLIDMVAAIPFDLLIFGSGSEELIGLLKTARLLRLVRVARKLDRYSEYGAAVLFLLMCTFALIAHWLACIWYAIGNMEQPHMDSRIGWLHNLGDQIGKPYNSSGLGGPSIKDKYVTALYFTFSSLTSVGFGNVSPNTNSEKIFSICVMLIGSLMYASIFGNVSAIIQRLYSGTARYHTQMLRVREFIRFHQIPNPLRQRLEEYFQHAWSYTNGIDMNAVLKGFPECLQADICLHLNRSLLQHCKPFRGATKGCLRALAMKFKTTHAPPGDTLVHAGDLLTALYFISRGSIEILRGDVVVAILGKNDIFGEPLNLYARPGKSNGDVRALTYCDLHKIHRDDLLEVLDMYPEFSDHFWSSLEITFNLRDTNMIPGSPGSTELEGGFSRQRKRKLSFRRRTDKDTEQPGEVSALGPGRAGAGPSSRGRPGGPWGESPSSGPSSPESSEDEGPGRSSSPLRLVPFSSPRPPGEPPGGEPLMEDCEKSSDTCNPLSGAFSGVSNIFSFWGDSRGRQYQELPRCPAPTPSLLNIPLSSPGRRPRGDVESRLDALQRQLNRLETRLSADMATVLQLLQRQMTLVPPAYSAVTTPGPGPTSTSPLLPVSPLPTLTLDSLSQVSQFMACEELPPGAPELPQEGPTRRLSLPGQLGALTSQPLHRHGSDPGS

In the case of `Cc1csc(NC(=O)CSc2ccc(-c3ccccc3)nn2)n1`, the inhibition in data set [1] is above 50%. This compound also yielded an inhibition at 10 µM in data set [2] above 50%. The values for the IC50 in data set [3] and in data set [4] were above 50000 nM and 568 nM, respectively.

`O=C(Cn1cnc2c(nnn2Cc2ccccc2)c1=O)c1ccc(Cl)cc1`: the Activity in data set [5] was 40%. In addition, the IC50 in data set [4] came to 1200 nM.

For `Cc1csc(N(C)C(=O)C(C)Sc2ccc(-c3ccccc3)nn2)n1` (racemic), the inhibition in [6] worked out at 46%.

For the compound `CCC(Sc1ccc(-c2ccccc2)nn1)C(=O)N(c1nc(C)cs1)C1CC1` (racemic) [listing 1 of 2 here], the IC50 in data set [4] is 756 nM.

On to `CCC(Sc1ccc(-c2ccccc2)nn1)C(=O)N(CC)c1nc(C)cs1` (racemic), for which the inhibition in data set [6] was 45%.

As to `Cc1csc(N(C)C(=O)CSc2ccc(-c3ccccc3)cn2)n1`, the IC50 in data set [4] was found to be 2900 nM.

Consider `Cc1csc(N(C(=O)CSc2ccc(-c3ccccc3)nn2)C2CCC2)n1`, for which, in [4], the IC50 stood at 177 nM.

For `CCC(Sc1ccc(-c2ccccc2)nn1)C(=O)N(C)c1nc(C)cs1` (racemic), the inhibition in [6] is 27%.

`CCN(C(=O)C(C)Sc1ccc(-c2ccccc2)nn1)c1nc(C)cs1` (racemic): the inhibition in [6] stood at 57%.

For the compound `CCC(Sc1ccc(-c2ccccc2)nn1)C(=O)N(c1nc(C)cs1)C1CC1` (racemic) [listing 2 of 2 here], in data set [6], the inhibition amounted to 84%.

As for `Cc1csc(NC(=O)CSc2ccc(-c3ccccc3)cn2)n1`, in data set [4], the IC50 was 6900 nM.

As for `CCC(Sc1ccc(-c2ccccc2)nn1)C(=O)N(c1nc(C)cs1)C1CC1` (single isomer, unassigned; (-)), the inhibition in data set [6] is 40%.

Take `Cc1csc(N(C(=O)CSc2ccc(-c3ccccc3)nn2)C2CCCC2)n1`: the IC50 in data set [4] was 1060 nM.

Consider `Cc1csc(N(C(=O)CSc2ccc(-c3ccccc3)nn2)C2CC2)n1`, for which, in [7], the Vd was 0.4 L/kg. Moreover, the remaining at 1 h in data set [8] turned out to be 6%. Further, in data set [9], the clearance came to 57 mL/min/kg. In addition, in [10], the result was Active. For the same compound, the IC50 in [11] is above 30000 nM; in data set [12], 20000 nM; in data set [13], above 30000 nM; in data set [4], 61 nM. In addition, in [14], the half-life came out at 9 min.

For the compound `CCC(Sc1ccc(-c2ccccc2)nn1)C(=O)N(c1nc(C)cs1)C1CC1` (single isomer, unassigned; (+)), the IC50 in data set [4] came out at 385 nM.

In the case of `Cc1csc(N(C)C(=O)CSc2ccc(-c3ccccc3)nn2)n1`, the IC50 was above 30000 nM in data set [15]; above 30000 nM in data set [11]; above 30000 nM in data set [12]; above 50000 nM in data set [3]; 24000 nM in data set [13]; 537 nM in [4]. Further, the Fu came to 2% in [16] and 1% in data set [17]. In addition, the Vd in data set [7] stood at 5 L/kg. For the same compound, the inhibition in data set [6] came out at 82%. In data set [9], this compound came in with a clearance of 185 mL/min/kg. The result in data set [10] was Active. The half-life in [14] is 26 min.
